pIC50, pKi: −log10 of the molar value.
What follows are molecules tested against T1, Acetylcholinesterase (Rattus norvegicus, UniProt P37136) (assay: Inhibition of AChE in rat cortex using acetylthiocholine iodide as substrate by double Lineweaver-Burk plot analysis).
T1 sequence (P37136 whole entry): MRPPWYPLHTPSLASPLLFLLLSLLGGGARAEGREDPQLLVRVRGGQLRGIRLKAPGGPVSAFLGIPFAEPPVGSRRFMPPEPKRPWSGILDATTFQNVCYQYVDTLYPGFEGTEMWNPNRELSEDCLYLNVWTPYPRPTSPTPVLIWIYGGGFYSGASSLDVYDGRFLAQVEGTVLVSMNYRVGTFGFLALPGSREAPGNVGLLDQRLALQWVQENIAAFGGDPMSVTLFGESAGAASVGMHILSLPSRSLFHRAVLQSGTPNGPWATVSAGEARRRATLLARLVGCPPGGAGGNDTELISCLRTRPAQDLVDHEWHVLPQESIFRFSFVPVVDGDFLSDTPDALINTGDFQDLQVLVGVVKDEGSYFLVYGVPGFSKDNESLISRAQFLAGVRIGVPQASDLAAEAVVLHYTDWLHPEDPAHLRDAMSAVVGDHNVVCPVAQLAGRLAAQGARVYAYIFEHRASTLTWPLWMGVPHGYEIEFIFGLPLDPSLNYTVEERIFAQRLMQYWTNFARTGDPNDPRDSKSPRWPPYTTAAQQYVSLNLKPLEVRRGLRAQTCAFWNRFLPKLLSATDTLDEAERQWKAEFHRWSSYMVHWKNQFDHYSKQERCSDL

Compound	pKi
O=C1c2cccc(O)c2C(=O)c2c(O)cc(C[n+]3ccccc3)cc21	6.55

These molecules were tested against T1, Acetylcholinesterase.
Description: Inhibition of AChE in rat cortex using acetylthiocholine iodide as substrate preincubated with enzyme for 10 mins prior to substrate addition by Ellman's colorimetric method

Compound	pIC50
COc1cccc2c1C(=O)c1c(OC)cc(C[N+](C)(C)C)cc1C2=O	6.27
COc1cccc2c1C(=O)c1c(OC)cc(C[N+](C)(C)c3ccccc3)cc1C2=O	4.87
O=C1c2cccc(O)c2C(=O)c2c(O)cc(C[n+]3ccccc3)cc21	7.05
C[N+](C)(C)Cc1cc(O)c2c(c1)C(=O)c1cccc(O)c1C2=O	5.42
C[N+](C)(Cc1cc(O)c2c(c1)C(=O)c1cccc(O)c1C2=O)c1ccccc1	4.60
